# Data reported in PMC12951562, “SH2scan: Mapping SH2 Domain-Ligand Binding Selectivity for Inhibitors and Degraders” (Journal of Medicinal Chemistry, 2026).
# Non-standard residues stand in square brackets, D forms with d. Residues, ends and D or L forms follow the SMILES beside them. pY = N[C@@H](Cc1ccc(OP(=O)(O)O)cc1)C(=O)O
# Assays:
# Experiment in all cases: biochemical
# Assay type in all cases: binding
# MATK = target: T1, MATK (Homo sapiens, UniProt P42679)
# T1 construct: the DNA-tagged SH2 domain concentrations used in this study were <0.1 nM; made in house; host or cells: HEK293 (transient transfection, unpurified extract)
# T1 sequence (P42679 122-211 limits assumed): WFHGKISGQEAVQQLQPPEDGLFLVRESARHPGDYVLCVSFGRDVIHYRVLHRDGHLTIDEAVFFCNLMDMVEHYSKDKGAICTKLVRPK
# HCK = target: T2, HCK (Homo sapiens, UniProt P08631)
# T2 construct: the DNA-tagged SH2 domain concentrations used in this study were <0.1 nM; made in house; host or cells: HEK293 (transient transfection, unpurified extract)
# LCK = target: T3, LCK (Homo sapiens, UniProt P06239)
# T3 construct: the DNA-tagged SH2 domain concentrations used in this study were <0.1 nM; made in house; host or cells: HEK293 (transient transfection, unpurified extract)
# SRC = target: T4, SRC (Homo sapiens, UniProt P12931)
# T4 construct: made in house; host or cells: HEK293 (transient transfection), unpurified extract
# T4 sequence (P12931 whole entry): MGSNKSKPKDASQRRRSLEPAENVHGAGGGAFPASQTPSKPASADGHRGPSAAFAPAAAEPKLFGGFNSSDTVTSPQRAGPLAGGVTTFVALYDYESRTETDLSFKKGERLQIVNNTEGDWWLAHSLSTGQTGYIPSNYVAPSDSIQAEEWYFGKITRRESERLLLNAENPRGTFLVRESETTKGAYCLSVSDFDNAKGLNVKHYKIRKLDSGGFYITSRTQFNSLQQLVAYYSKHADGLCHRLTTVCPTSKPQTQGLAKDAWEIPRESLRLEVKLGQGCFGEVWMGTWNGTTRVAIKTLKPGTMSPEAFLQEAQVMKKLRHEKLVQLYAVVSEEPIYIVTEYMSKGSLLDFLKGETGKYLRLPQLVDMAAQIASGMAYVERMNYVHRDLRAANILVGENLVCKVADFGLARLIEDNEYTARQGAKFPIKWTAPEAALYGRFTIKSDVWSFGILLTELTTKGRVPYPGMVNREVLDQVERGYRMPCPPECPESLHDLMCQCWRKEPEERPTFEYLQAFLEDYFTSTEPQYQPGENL
# T2 sequence (P08631 144-241 limits assumed): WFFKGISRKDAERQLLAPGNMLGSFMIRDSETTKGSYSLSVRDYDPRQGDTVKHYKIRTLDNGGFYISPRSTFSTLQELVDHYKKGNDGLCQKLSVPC
# T3 sequence (P06239 127-224 limits assumed): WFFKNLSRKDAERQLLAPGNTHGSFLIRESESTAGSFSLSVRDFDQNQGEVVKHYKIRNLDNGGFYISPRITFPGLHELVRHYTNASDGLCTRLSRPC
Compound,Kd (MATK) [nM],Kd (HCK) [nM],Kd (LCK) [nM],Kd (SRC) [nM]
CC[C@H](C)[C@H](NC(=O)[C@H](CS)NC(=O)[C@H](CCCNC(=N)N)NC(C)=O)C(=O)N[C@@H](CC(N)=O)C(=O)N[C@@H](Cc1ccc(OP(=O)(O)O)cc1)C(=O)N[C@H](C(=O)N[C@@H](Cc1ccccc1)C(=O)N[C@@H](Cc1ccccc1)C(=O)N1CCC[C@H]1C(=O)N[C@@H](CO)C(=O)N[C@@H](CC(C)C)C(=O)N[C@@H](CCCCN)C(=O)N1CCC[C@H]1C(=O)N[C@@H](CO)C(=O)N[C@@H](CO)C(N)=O)C(C)C,555 ± 128,–,–,–
CC[C@H](C)[C@H](NC(=O)[C@@H]1CCCN1C(=O)[C@@H](NC(=O)[C@H](CCC(=O)O)NC(=O)[C@H](CCC(=O)O)NC(=O)[C@H](Cc1ccc(OP(=O)(O)O)cc1)NC(=O)[C@H](CCC(N)=O)NC(=O)[C@@H]1CCCN1C(=O)[C@H](CCC(=O)O)NC(C)=O)[C@@H](C)CC)C(=O)N[C@@H](Cc1ccc(O)cc1)C(=O)N[C@@H](CC(C)C)C(N)=O (Ac-EPQ[pY]EEIPIYL-NH2),–,1440 ± 475,97 ± 51.6,2710 ± 1950
